Laboratory results: patent US9029378B2, “Substituted bicyclic aromatic carboxamide and urea compounds as vanilloid receptor ligands” (Gruenenthal GmbH, priority 2011, dated 2015)

Molecular target: T1, vanilloid receptor 1 (VR1/TRPV1 receptor) (Homo sapiens, UniProt Q8NER1)
T1 construct: expressed in transfected cells; host or cells: CHO K1
Assay: Functional testing on the vanilloid receptor 1 (FLIPR Ca2+ influx assay, capsaicin)
Assay type: cell-based, human being
Design: key to (f) (human being) Cap: effect in words (agonist / no effect): AG=agonist; NE=no effect
Conditions: @0.1 μM; Cap=capsaicin; read-out: inhibition (as a percentage), (f) (human being) Cap
Procedure: Furthermore, preference may be given to compounds according to the invention that cause a 50 percent displacement of capsaicin, which is present at a concentration of 100 nM, in a FLIPR assay with CHO K1 cells which were transfected with the human VR1 gene at a concentration of less than 2,000 nM, preferably less than 1,000 nM, particularly preferably less than 300 nM, most particularly preferably less than 100 nM, even more preferably less than 75 nM, additionally preferably less than 50 nM, most preferably less than 10 nM.
In the process, the Ca^2+ influx is quantified in the FLIPR assay with the aid of a Ca^2+-sensitive dye (type Fluo-4, Molecular Probes Europe BV, Leiden, the Netherlands) in a fluorescent imaging plate reader (FLIPR, Molecular Devices, Sunnyvale, USA), as described hereinafter.
Pharmacological Methods I. Functional Testing Carried Out on the Vanilloid Receptor 1 (VR1/TRPV1 Receptor) […]
The number of cells in the suspension is set to 3×10^5 per mL and 150 μL of this suspension are in each case introduced into a recess in the cell culture plates coated as described hereinbefore. In the incubator the plates are left for two to three days at 37° C., 5% by volume of CO2 and 95% relative humidity. Subsequently, the cells are loaded with 2 μM of Fluo-4 and 0.01% by volume of Pluronic F127 (Molecular Probes Europe BV, Leiden, the Netherlands) in HBSS buffer (Hank's buffered saline solution, Gibco Invitrogen GmbH, Karlsruhe, Germany) for 30 min at 37° C., washed 3 times with HBSS buffer and after further incubation for 15 minutes at room temperature used for Ca^2+ measurement in a FLIPR assay. The Ca^2+-dependent fluorescence is in this case measured before and after the addition of substances (λex=488 nm, λem=540 nm). Quantification is carried out by measuring the highest fluorescence intensity (FC, fluorescence counts) over time.
The FLIPR protocol consists of 2 substance additions. First the compounds to be tested (10 μM) are pipetted onto the cells and the Ca^2+ influx is compared with the control (capsaicin 10 μM). This provides the result in % activation based on the Ca^2+ signal after the addition of 10 μM of capsaicin (CP). After 5 minutes' incubation, 100 nM of capsaicin are applied and the Ca^2+ influx is also determined.
Desensitising agonists and antagonists lead to suppression of the Ca^2+ influx. The % inhibition is calculated compared to the maximum achievable inhibition with 10 μM of capsazepine. Triple analyses (n=3) are carried out and repeated in at least 3 independent experiments (N=4). Starting from the percentage displacement caused by different concentrations of the compounds to be tested of general formula I, IC50 inhibitory concentrations which cause a 50-percent displacement of capsaicin were calculated. Ki values for the test substances were obtained by conversion by means of the Cheng-Prusoff equation (Cheng, Prusoff; Biochem. Pharmacol. 22, 3099-3108, 1973).
The affinity of the compounds of to the invention for the vanilloid receptor 1 (VR1/TRPV1 receptor) was determined as described hereinbefore (pharmacological method I). The compounds of the invention display outstanding affinity to the VR1/TRPV1 receptor (Table 2). In Table 2 the abbreviations below have the following meanings: • Cap=capsaicin • AG=agonist • NE=no effect
The value after the “@” symbol indicates the concentration at which the inhibition (as a percentage) was respectively determined.

T1 sequence (Q8NER1 whole entry): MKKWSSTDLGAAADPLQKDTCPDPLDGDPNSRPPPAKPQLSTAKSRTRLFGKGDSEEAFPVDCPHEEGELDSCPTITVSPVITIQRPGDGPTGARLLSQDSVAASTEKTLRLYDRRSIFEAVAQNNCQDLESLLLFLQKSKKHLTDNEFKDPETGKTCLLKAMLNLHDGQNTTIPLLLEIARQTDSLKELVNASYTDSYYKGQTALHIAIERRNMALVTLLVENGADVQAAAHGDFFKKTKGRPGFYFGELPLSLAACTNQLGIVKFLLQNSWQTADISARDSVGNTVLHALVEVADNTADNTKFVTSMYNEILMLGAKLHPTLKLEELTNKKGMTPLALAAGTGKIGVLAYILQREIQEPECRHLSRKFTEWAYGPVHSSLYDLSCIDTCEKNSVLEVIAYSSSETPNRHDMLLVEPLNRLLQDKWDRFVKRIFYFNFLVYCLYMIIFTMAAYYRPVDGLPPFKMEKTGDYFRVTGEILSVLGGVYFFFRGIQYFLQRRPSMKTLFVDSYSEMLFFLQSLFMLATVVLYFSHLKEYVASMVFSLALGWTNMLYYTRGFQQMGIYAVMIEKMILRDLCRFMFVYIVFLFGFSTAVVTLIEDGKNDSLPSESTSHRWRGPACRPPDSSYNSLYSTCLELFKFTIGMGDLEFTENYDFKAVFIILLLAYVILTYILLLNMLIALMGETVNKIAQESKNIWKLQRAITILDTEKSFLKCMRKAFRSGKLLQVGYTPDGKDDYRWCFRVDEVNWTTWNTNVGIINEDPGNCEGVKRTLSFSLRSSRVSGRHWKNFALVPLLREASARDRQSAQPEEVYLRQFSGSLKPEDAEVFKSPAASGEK

inhibition at 0.1 µM	Compound
37%	CC1CCN(c2nc(C(F)(F)F)ccc2CNC(=O)Nc2cccc3cc[nH]c23)CC1 [Example 36, 1-(1H-Indol-7-yl)-3-((2-(4-methylpiperidin-1-yl)-6-(trifluoromethyl)pyridin-3-yl)methyl)urea]

Same assay, conditions: @5 μM; Cap=capsaicin; read-out: inhibition (as a percentage), (f) (human being) Cap

inhibition at 5 µM	Compound
22%	CC1CCN(c2nc(C(F)(F)F)ccc2CNC(=O)Nc2ccnc3[nH]ncc23)CC1 [Example 9, 1-((2-(4-Methylpiperidin-1-yl)-6-(trifluoromethyl)pyridin-3-yl)methyl)-3-(1H-pyrazolo[3,4-b]pyridin-4-yl)urea]
19%	O=C(NCc1ccc(C(F)(F)F)nc1SC1CCCCC1)Nc1ccc2ccccc2n1 [Example 11, 1-((2-(Cyclohexylthio)-6-(trifluoromethyl)pyridin-3-yl)methyl)-3-(quinolin-2-yl)urea]
39%	CC1CCN(c2nc(C(F)(F)F)ccc2CNC(=O)Nc2cc3ccccc3cn2)CC1 [Example 21, 1-(Isoquinolin-3-yl)-3-((2-(4-methylpiperidin-1-yl)-6-(trifluoromethyl)pyridin-3-yl)methyl)urea]
47%	CC(=O)Nc1nc2ccc(NC(=O)NCc3ccc(C(F)(F)F)nc3N3CCC(C)CC3)cc2s1 [Example 35, N-(6-(3-((2-(4-Methylpiperidin-1-yl)-6-(trifluoromethyl)pyridin-3-yl)methyl)ureido)benzo[d]thiazol-2-yl)acetamide]

Same assay, conditions: Cap=capsaicin

Compound	(f) (human being) Cap: effect in words (agonist / no effect)
CC1CCN(c2nc(C(F)(F)F)ccc2CNC(=O)Nc2ccnc3ccccc23)CC1 [Example 17, 1-((2-(4-Methylpiperidin-1-yl)-6-(trifluoromethyl)pyridin-3-yl)methyl)-3-(quinolin-4-yl)urea]	AG
CC1CCN(c2nc(C(F)(F)F)ccc2CNC(=O)Nc2nccc3ccccc23)CC1 [Example 20, 1-(Isoquinolin-1-yl)-3-((2-(4-methylpiperidin-1-yl)-6-(trifluoromethyl)pyridin-3-yl)methyl)urea]	NE

The next lines start with the values.

(f) (human being) Cap: effect in words (agonist / no effect)	Compound
AG	CC1CCN(c2nc(C(F)(F)F)ccc2CNC(=O)Nc2ccc3ncn(C)c3c2)CC1 [Example 26, 1-(1-Methyl-1H-benzo[d]imidazol-6-yl)-3-((2-(4-methylpiperidin-1-yl)-6-(trifluoromethyl)pyridin-3-yl)methyl)urea]
AG	CC(=O)Nc1nc2cc(NC(=O)NCc3ccc(C(F)(F)F)nc3N3CCC(C)CC3)ccc2s1 [Example 31, N-(5-(3-((2-(4-methylpiperidin-1-yl)-6-(trifluoromethyl)pyridin-3-yl)methyl)ureido)benzo[d]thiazol-2-yl)acetamide]

Same assay, conditions: Cap=capsaicin (100 nM); Ki from IC50 by Cheng-Prusoff equation; read-out: (f) Ki (human being) [nM] Cap

Compound	Ki
CC1CCN(c2nc(C(F)(F)F)ccc2CNC(=O)Nc2cnc3[nH]ncc3c2)CC1 [Example 5, 1-((2-(4-methylpiperidin-1-yl)-6-(trifluoromethyl)pyridin-3-yl)methyl)-3-(1H-pyrazolo[3,4-b]pyridin-5-yl)urea]	21 nM
CC1CCN(c2nc(C(F)(F)F)ccc2CNC(=O)C(C)c2ccnc3[nH]ncc23)CC1 (centres unmarked) [Example 8, N-((2-(4-Methylpiperidin-1-yl)-6-(trifluoromethyl)pyridin-3-yl)methyl)-2-(1H-pyrazolo[3,4-b]pyridin-4-yl)propanamide]	2 nM
CC1CCN(c2nc(C(F)(F)F)ccc2CNC(=O)Nc2cnc3ccccc3c2)CC1 [Example 12, 1-((2-(4-Methylpiperidin-1-yl)-6-(trifluoromethyl)pyridin-3-yl)methyl)-3-(quinolin-3-yl)urea]	9 nM
CC1CCN(c2nc(C(F)(F)F)ccc2CNC(=O)C(C)c2cnc3ccccc3c2)CC1 (centres unmarked) [Example 14, N-((2-(4-Methylpiperidin-1-yl)-6-(trifluoromethyl)pyridin-3-yl)methyl)-2-(quinolin-3-yl)propanamide]	44 nM
CC(C(=O)NCc1ccc(C(F)(F)F)nc1SC1CCCCC1)c1cnc2ccccc2c1 (centres unmarked) [Example 15, N-((2-(Cyclohexylthio)-6-(trifluoromethyl)pyridin-3-yl)methyl)-2-(quinolin-3-yl)propanamide]	50 nM
CC1CCN(c2nc(C(F)(F)F)ccc2CNC(=O)Nc2cncc3ccccc23)CC1 [Example 18, 1-(Isoquinolin-4-yl)-3-((2-(4-methylpiperidin-1-yl)-6-(trifluoromethyl)pyridin-3-yl)methyl)urea]	2 nM
O=C(NCc1ccc(C(F)(F)F)nc1SC1CCCCC1)Nc1cncc2ccccc12 [Example 19, 1-((2-(Cyclohexylthio)-6-(trifluoromethyl)pyridin-3-yl)methyl)-3-(isoquinolin-4-yl)urea]	4 nM
CC1CCN(c2nc(C(F)(F)F)ccc2CNC(=O)Nc2ccc3cc[nH]c3c2)CC1 [Example 22, 1-(1H-Indol-6-yl)-3-((2-(4-methylpiperidin-1-yl)-6-(trifluoromethyl)pyridin-3-yl)methyl)urea]	24 nM

Second part, the compound after the results:

Ki	Compound
9 nM	1-(6,7-Dihydro-5H-cyclopenta[b]pyridin-3-yl)-3-((2-(4-methylpiperidin-1-yl)-6-(trifluoromethyl)pyridin-3-yl)methyl)urea [Example 1]
13 nM	CC1CCN(c2nc(C(F)(F)F)ccc2CNC(=O)Nc2ccc3[nH]ccc3c2)CC1 [Example 23, 1-(1H-Indol-5-yl)-3-((2-(4-methylpiperidin-1-yl)-6-(trifluoromethyl)pyridin-3-yl)methyl)urea]
26 nM	Cc1cc2cc(NC(=O)NCc3ccc(C(F)(F)F)nc3N3CCC(C)CC3)ccc2[nH]1 [Example 24, 1-(2-Methyl-1H-indol-5-yl)-3-((2-(4-methylpiperidin-1-yl)-6-(trifluoromethyl)pyridin-3-yl)methyl)urea]
7 nM	CC1CCN(c2nc(C(F)(F)F)ccc2CNC(=O)Nc2ccc3cnn(C)c3c2)CC1 [Example 27, 1-(1-Methyl-1H-indazol-6-yl)-3-((2-(4-methylpiperidin-1-yl)-6-(trifluoromethyl)pyridin-3-yl)methyl)urea]
5 nM	CC1CCN(c2nc(C(F)(F)F)ccc2CNC(=O)Nc2ccc3scnc3c2)CC1 [Example 29, 1-(Benzo[d]thiazol-5-yl)-3-((2-(4-methylpiperidin-1-yl)-6-(trifluoromethyl)pyridin-3-yl)methyl)urea]
22 nM	Cc1nc2cc(NC(=O)NCc3ccc(C(F)(F)F)nc3N3CCC(C)CC3)ccc2s1 [Example 30, 1-(2-Methylbenzo[d]thiazol-5-yl)-3-((2-(4-methylpiperidin-1-yl)-6-(trifluoromethyl)pyridin-3-yl)methyl)urea]
4 nM	CC1CCN(c2nc(C(F)(F)F)ccc2CNC(=O)Nc2ccc3ncsc3c2)CC1 [Example 32, 1-(Benzo[d]thiazol-6-yl)-3-((2-(4-methylpiperidin-1-yl)-6-(trifluoromethyl)pyridin-3-yl)methyl)urea]
4 nM	Cc1nc2ccc(NC(=O)NCc3ccc(C(F)(F)F)nc3N3CCC(C)CC3)cc2s1 [Example 33, 1-(2-Methylbenzo[d]thiazol-6-yl)-3-((2-(4-methylpiperidin-1-yl)-6-(trifluoromethyl)pyridin-3-yl)methyl)urea]
50 nM	CC1CCN(c2nc(C(F)(F)F)ccc2CNC(=O)Nc2ccc3nc(N)sc3c2)CC1 [Example 34, 1-(2-Aminobenzo[d]thiazol-6-yl)-3-((2-(4-methylpiperidin-1-yl)-6-(trifluoromethyl)pyridin-3-yl)methyl)urea]
